Results reported in PubChem BioAssay (NCI).
Where “and” joins values, the source holds several entries; their conditions need not be identical. Equal entries are not always repeated.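 Protocol summary: plate cells (96-well), add compound at 5 concentrations, incubate 48 h, interpolate endpoints linearly. GI50 = concentration required for 50% inhibition of growth. Definition used: TGI = concentration required for complete inhibition of growth.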

How the values were obtained:
Experiment in all cases: inhibition of tumour cell growth, NCI panel, 48 h
786-0 renal = tested on: 786-0 renal
CAKI-1 renal = tested on: CAKI-1 renal
HOP-62 NSCLC = tested on: HOP-62 NSCLC
LOX IMVI melanoma = tested on: LOX IMVI melanoma
NCI/ADR-RES ovarian = tested on: NCI/ADR-RES ovarian
SN12C renal = tested on: SN12C renal
SNB-75 CNS = tested on: SNB-75 CNS
TK-10 renal = tested on: TK-10 renal
U251 CNS = tested on: U251 CNS
UO-31 renal = tested on: UO-31 renal

SMILES	GI50 (786-0 renal)	TGI (786-0 renal)	GI50 (CAKI-1 renal)	TGI (CAKI-1 renal)	GI50 (HOP-62 NSCLC)	TGI (HOP-62 NSCLC)	GI50 (LOX IMVI melanoma)	TGI (LOX IMVI melanoma)	GI50 (NCI/ADR-RES ovarian)	TGI (NCI/ADR-RES ovarian)	GI50 (SN12C renal)	TGI (SN12C renal)	GI50 (SNB-75 CNS)	TGI (SNB-75 CNS)	GI50 (TK-10 renal)	TGI (TK-10 renal)	GI50 (U251 CNS)	TGI (U251 CNS)	GI50 (UO-31 renal)	TGI (UO-31 renal)
CCc1ccc(NC(=O)COC(=O)c2cc([N+](=O)[O-])ccc2Sc2nnnn2C)cc1	21.1 µM	72.9 µM	13.7 µM	46.5 µM	15.2 µM	36 µM	6.75 µM	22 µM	5.66 µM	47.2 µM	33.2 µM	> 100 µM	13.1 µM	35 µM	46.4 µM	> 100 µM	15.4 µM	34.1 µM	24.9 µM	> 100 µM
O=c1nc2oc3ccc4ccccc4c3cc-2s1	3.25 µM	> 100 µM	1.16 µM	> 100 µM	4.7 µM	> 79 µM	4.09 µM	> 100 µM	> 100 µM	> 100 µM	20.4 µM	> 100 µM	0.476 µM	10.1 µM	> 25.4 µM	> 100 µM	4.4 µM	> 100 µM	33.7 µM	> 100 µM
CCCCN(CCCC)c1ccc(C(=N)c2ccc(N(CCCC)CCCC)cc2)cc1	0.847 µM	2.25 µM	0.535 µM	1.82 µM	0.748 µM	2.11 µM	0.313 µM	1.19 µM	0.479 µM	1.67 µM	0.35 µM	1.44 µM	0.746 µM	2.14 µM	0.453 µM	1.53 µM	0.351 µM	1.28 µM	0.32 µM	1.38 µM
CCOc1cc2ncc(C#N)c(Nc3ccc(OCc4ccccn4)c(Cl)c3)c2cc1NC(=O)/C=C/CN(C)C	0.755 µM	2.81 µM	0.0564 µM and 0.146 µM	12.5 µM and > 9.09 µM	1.22 µM and 1.51 µM	4.44 µM and > 7.81 µM	0.724 µM and 0.82 µM	2.29 µM and > 5.73 µM	1.17 µM and 1.2 µM	4.49 µM and > 8.87 µM	0.274 µM and 0.236 µM	4.6 µM and > 10 µM	0.915 µM and 0.362 µM	5.87 µM and > 5.3 µM	< 0.0117 µM and 0.0127 µM	–	0.899 µM and 1.37 µM	2.29 µM and > 10 µM	0.122 µM and 0.133 µM	1.57 µM and 2.73 µM
COc1cc([C@H]2OC[C@H]3[C@@H]2CO[C@@H]3c2cc(OC)c3c(c2)OCO3)cc(OC)c1OC	–	> 100 µM	–	> 100 µM	–	> 100 µM	–	> 100 µM	–	> 100 µM	–	> 100 µM	–	> 100 µM	–	> 100 µM	–	> 100 µM	–	> 100 µM
Cc1ccc(S(=O)(=O)Nc2cccc3[nH]c(C(F)(F)F)nc23)cc1	1.94 µM	67.3 µM	0.337 µM	24.4 µM	1.21 µM	41.8 µM	0.829 µM	> 100 µM	0.412 µM	42.9 µM	2.72 µM	> 89.2 µM	0.314 µM	2.45 µM	2.98 µM	61.8 µM	0.466 µM	21.4 µM	1.3 µM	> 57.5 µM
C/C=C(\C)C(=O)O[C@H]1C=CC(=O)O[C@@H]1CC[C@H](O)[C@H](C)O	46.5 µM	> 100 µM	27.3 µM	68.4 µM	> 100 µM	> 100 µM	27.5 µM	> 78.7 µM	> 100 µM	> 100 µM	47 µM	> 100 µM	33.3 µM	78.9 µM	50.6 µM	> 100 µM	55.3 µM	> 100 µM	20.5 µM	> 67.4 µM
COc1cccc(-n2ncc3c(N/N=C/c4ccncc4)ncnc32)c1	4.66 µM	> 25 µM	0.769 µM	> 25 µM	> 25 µM	> 25 µM	1.01 µM	> 25 µM	> 25 µM	> 25 µM	4.95 µM	> 25 µM	2.48 µM	> 25 µM	2.75 µM	> 25 µM	1.1 µM	> 25 µM	2.45 µM	> 25 µM
COc1ccc(OC)c(-c2c(C#N)c(N)nc(N3CCOCC3)c2C#N)c1	> 100 µM	> 100 µM	43.4 µM	97 µM	65.3 µM	> 100 µM	> 100 µM	> 100 µM	> 100 µM	> 100 µM	73 µM	> 100 µM	12.9 µM	57.4 µM	45 µM	> 100 µM	> 100 µM	> 100 µM	46 µM	> 100 µM
Nc1[nH]nc2nc(-c3cccs3)cc(C(F)(F)F)c12	> 25 µM	> 25 µM	> 20.3 µM	> 25 µM	> 25 µM	> 25 µM	> 25 µM	> 25 µM	> 25 µM	> 25 µM	> 25 µM	> 25 µM	> 25 µM	> 25 µM	> 19.2 µM	> 25 µM	> 23.7 µM	> 25 µM	> 25 µM	> 25 µM
CC[C@H](CO)Nc1nc(NCc2ccccc2)n2ncc(C(C)C)c2n1	1.98 µM	10.7 µM	1.02 µM	8.35 µM	2.1 µM	8.72 µM	1.07 µM	10.3 µM	2.08 µM	15.7 µM	2.41 µM	14.4 µM	1.31 µM	3.33 µM	2 µM	10.9 µM	1.4 µM	10.5 µM	1.59 µM	> 100 µM
CS[C@]12C(=O)C[C@@]3(C)[C@@H](CC[C@]3(O)C(=O)CO)[C@@H]1CCC1=CC(=O)CC[C@@]12C	–	> 100 µM	–	> 100 µM	–	> 100 µM	–	> 100 µM	–	> 100 µM	–	> 100 µM	–	> 100 µM	–	> 100 µM	–	> 100 µM	–	> 100 µM
Nc1nc(Nc2ccc(C3CCC(N4CCOCC4)CC3)cc2)nn1-c1ccccn1 (centres undefined)	2.22 µM	11.4 µM	2.44 µM	> 52.2 µM	3.04 µM	> 68.4 µM	3.24 µM	9.37 µM	9.33 µM	> 100 µM	2.4 µM	> 100 µM	1.9 µM	11.9 µM	> 21.5 µM	> 100 µM	5.05 µM	> 100 µM	2.48 µM	> 33.7 µM
CCCOC(=O)N1CCN(/[N+]([O-])=N/Oc2ccc([N+](=O)[O-])cc2[N+](=O)[O-])CC1	1 µM	2.95 µM	2.16 µM	5.04 µM	2.58 µM	6.4 µM	0.32 µM	1.08 µM	3.31 µM	> 100 µM	2.58 µM	6.94 µM	18.2 µM	36.1 µM	3.87 µM	14.9 µM	2.03 µM	3.96 µM	3.5 µM	48.9 µM
CC#CC(=O)SCCNC(=O)CC	–	> 10 µM	–	> 10 µM	–	> 10 µM	–	> 10 µM	–	> 10 µM	–	> 10 µM	–	> 10 µM	–	> 10 µM	–	> 10 µM	–	> 10 µM
COc1c(Cl)cc(NC(=S)C#N)cc1Cl	–	88.2 µM	–	58.4 µM	–	> 50.9 µM	–	38.8 µM	–	54.4 µM	–	53.5 µM	–	67.4 µM	–	> 100 µM	–	43.6 µM	–	56.1 µM
O=C(Nc1ccc(Cl)cc1)Nc1ccc(Nc2nncc3ccccc23)cc1	3.09 µM	25.2 µM	1.97 µM	12.5 µM	3 µM	14.9 µM	0.825 µM	14.6 µM	2.79 µM	26.3 µM	4.58 µM	37.2 µM	1.88 µM	8.67 µM	5.03 µM	24.4 µM	2.86 µM	10.3 µM	1.9 µM	15.8 µM
O=C1c2c(O)cccc2C(C2OC(CO)C(O)C(O)C2O)c2cc(CO)cc(O)c21 (centres undefined)	–	> 100 µM	–	> 100 µM	–	> 100 µM	–	> 100 µM	–	> 100 µM	–	> 100 µM	–	> 100 µM	–	> 100 µM	–	> 100 µM	–	> 100 µM
